Results taken from patent publication US7462639B2, “Aminopyrazole derivatives” (Hoffmann-La Roche Inc., priority 2005, dated 2008).
pIC50: −log10 of the molar value.

Assays:
[1] = molecular target: T1, Aurora A kinase (Homo sapiens, UniProt O14965); test: IC50 determination for inhibitors of Aurora A (ELISA-type kinase assay); type: biochemical; details: GST-Histone H3 substrate, mutant Aurora A kinase, 30 μM ATP, 40 minutes, read-out: IC50 Aurora A kinase inhibition
T1 sequence (O14965 1-403): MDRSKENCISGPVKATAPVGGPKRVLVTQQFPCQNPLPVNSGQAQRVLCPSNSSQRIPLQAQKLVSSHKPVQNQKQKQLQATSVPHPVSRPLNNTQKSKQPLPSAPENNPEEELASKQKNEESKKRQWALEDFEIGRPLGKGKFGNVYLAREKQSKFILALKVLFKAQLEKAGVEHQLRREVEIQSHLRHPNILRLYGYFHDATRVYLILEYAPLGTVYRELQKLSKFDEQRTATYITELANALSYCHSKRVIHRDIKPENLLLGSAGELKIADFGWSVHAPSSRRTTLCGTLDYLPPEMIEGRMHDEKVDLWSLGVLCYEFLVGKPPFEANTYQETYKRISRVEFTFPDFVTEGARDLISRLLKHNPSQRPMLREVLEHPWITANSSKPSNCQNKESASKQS
Experimental: Aurora A is a serine threonine kinase involved in spindle assembly and chromosome segregation. The assay is a typically ELISA-type assay where substrate (GST-Histone H3) is coupled to the assay-plate and is phosphorylated by the kinase. Phosphorylation is detected by a mouse anti-Phosphopeptid mAb and an HRP-labeled anti-mouse pAb. The assay is validated for IC50-determination.
Kinase activities were measured by Enzyme-Linked Immunosorbent Assay (ELISA): Maxisorp 384-well plates (Nunc) were coated with recombinant fusion protein comprising residues 1-15 of HistoneH3 fused to the N-terminus of Glutathione-S-Transferase. Plates were then blocked with a solution of 1 mg/mL I-block (a highly purified form of casein, Tropix cat. no. T2015) in phosphate-buffered saline. Kinase reactions were carried out in the wells of the ELISA plate by combining an appropriate amount of mutant Aurora A kinase with test compound and 30 μM ATP. The reaction buffer was 10× Kinase Buffer (Cell Signaling cat. no. 9802) supplemented with 1 μg/mL I-block. Reactions were stopped after 40 minutes by addition of 25 mM EDTA. After washing, substrate phosphorylation was detected by addition of anti-phospho-Histone H3 (Ser 10) 6G3 mAb (Cell Signaling cat. no. 9706) and sheep anti-mouse pAb-HRP (Amersham cat# NA931V), followed by colorimetric development with TMB (3,3′,5,5′-tetramethylbenzidine from Kirkegaard & Perry Laboratories). After readout of the adsorbance, IC50 values were calculated using a non-linear curve fit (XLfit software (ID Business Solution Ltd., Guilford, Surrey, UK)).

[2] = tested on: HCT 116 cells; test: Viability assay in HCT 116 cells (CellTiter-Glo); type: cell-based; details: HCT 116 human colon carcinoma cells, 5 days incubation, ATP luminescence readout
Experimental: A viability assay was performed using the CellTiter-Glo® Luminescent Cell Viability Assay (see Promega Corporation's Technical Bulletin No. 288, pp. 1-11 [revised 2/04] which is hereby incorporated by reference in its entirety). This assay is a homogeneous method of determining the number of viable cells in culture based on quantitation of the ATP present, an indicator of metabolically active cells. The assay is designed for use with multiwell formats, making it ideal for automated high-throughput screening (HTS), cell proliferation and cytotoxicity assays. The homogeneous assay procedure involves adding a single reagent (containing luciferase, luciferan substrate, and buffer) directly to cells cultured in serum-supplemented medium. Cell washing, removal of medium and multiple pipetting steps are not required. The system detects as few as 15 cells/well in a 384-well format in 10 minutes after adding reagent and mixing.
The homogeneous “add-mix-measure” format results in cell lysis and generation of a luminescent signal proportional to the amount of ATP present. The amount of ATP is directly proportional to the number of cells present in culture. The above-referenced assay generates a “glow-type” luminescent signal, produced by the luciferase reaction, which has a half-life generally greater than five hours, depending on cell type and medium used. The extended half-life eliminates the need to use reagent injectors and provides flexibility for continuous or batch mode processing of multiple plates. The unique homogeneous format avoids errors that may be introduced by other ATP measurement methods that require multiple steps.
HCT 116 cells (human colon carcinoma, ATCC-No. CCl-247) were cultivated in RPMI 1640 medium with GlutaMAX™ I (cell culture media that contains L-Alanyl-L-Glutamine [a stabilized a form/source of L-Glutamine] from Invitrogen, Cat-No. 61870-010), 2.5% Fetal Calf Serum (FCS, Sigma Cat-No. F4135 (FBS)); 100 Units/ml penicillin/100 μg/ml streptomycin (=Pen/Strep from Invitrogen Cat. No. 15140). For the assay the cells were seeded in 384 well plates, 1000 cells per well, in the same medium. The next day the test compounds were added in various concentrations ranging from 30 μM to 0.0015 μM (10 concentrations, 1:3 diluted). After 5 days the viability assay was done according to the instructions of the manufacturer. In brief: the cell-plate was equilibrated to room temperature for approximately 30 minutes and then reagent (containing luciferase, luciferan substrate, and buffer) was added. The contents were carefully mixed for 15 minutes to induce cell lysis. After 45 minutes the luminescent signal was measured in Victor 2, (scanning multiwell spectrophotometer, Wallac).
Medium: RPMI 1640 with cell culture media containing L-Alanyl-L-Glutamine [GlutaMAX™ I (Invitrogen, Cat-No. 61870)], 5% FCS (Sigma Cat.-No. F4135), Pen/Strep (Invitrogen, Cat No. 15140).
HCT116 (ATCC-No. CCl-247): 1000 cells in 60 μl per well of 384 well plate (Greiner 781098, μClear-plate white)
After seeding incubate plates 24 h at 37° C., 5% CO2
2nd. Day: Induction (Treatment with Compounds, 10 Concentrations):
In order to achieve a final concentration of 30 μM as highest concentration […] of 10 mM compound stock solution were added directly to […] media. Then step d) of the dilution procedure described below, was followed. […]

Row | Compound | pIC50 [1] | pIC50 ([2]; 120 h) | also measured
1 | CCN1C(=O)C(C)(C)c2cc3[nH]c(-c4n[nH]cc4NC(=O)C(F)(F)F)nc3cc21 [Example A-5, N-[3-(5-Ethyl-7,7-dimethyl-6-oxo-1,5,6,7-tetrahydro-imidazo[4,5-f]indol-2-yl)-1H-pyrazol-4-yl]-2,2,2-trifluoro-acetamide] | 7.54 |  | 
2 | CCN1C(=O)C(C)(C)c2cc3[nH]c(-c4n[nH]cc4NC(=O)OCc4ccccc4)nc3cc21 [Example E-5, [3-(5-Ethyl-7,7-dimethyl-6-oxo-1,5,6,7-tetrahydro-imidazo[4,5-f]indol-2-yl)-1H-pyrazol-4-yl]-carbamic acid benzyl ester] | 7.72 |  | 
3 | CCN1C(=O)C(C)(C)c2cc3[nH]c(-c4n[nH]cc4NC(=O)c4ccc5c(c4)OCCO5)nc3cc21 [Example C-13, 2,3-Dihydro-benzo[1,4]dioxine-6-carboxylic acid[3-(5-ethyl-7,7-dimethyl-6-oxo-1,5,6,7-tetrahydro-imidazo[4,5-f]indol-2-yl)-1H-pyrazol-4-yl]-amide] |  |  | pIC50 [2]: 7.20
4 | CCN1C(=O)C(C)(C)c2cc3[nH]c(-c4n[nH]cc4NC(=O)CC(C)C)nc3cc21 [Example B-20, N-[3-(5-Ethyl-7,7-dimethyl-6-oxo-1,5,6,7-tetrahydro-imidazo[4,5-f]indol-2-yl)-1H-pyrazol-4-yl]-3-methyl-butyramide] | 8.70 |  | 
5 | CCN1C(=O)C(C)(C)c2cc3[nH]c(-c4n[nH]cc4NC(=O)N(C)C)nc3cc21 [Example E-10, 3-[3-(5-Ethyl-7,7-dimethyl-6-oxo-1,5,6,7-tetrahydro-imidazo[4,5-f]indol-2-yl)-1H-pyrazol-4-yl]-1,1-dimethyl-urea] |  | 7.21 | 
6 | CCN1C(=O)C(C)(C)c2cc3[nH]c(-c4n[nH]cc4NC(=O)c4cccnc4)nc3cc21 [Example B-3, N-[3-(5-Ethyl-7,7-dimethyl-6-oxo-1,5,6,7-tetrahydro-imidazo[4,5-f]indol-2-yl)-1H-pyrazol-4-yl]-nicotinamide] |  | 7.24 | 
7 | CCN1C(=O)C(C)(C)c2cc3[nH]c(-c4n[nH]cc4NC(C)=O)nc3cc21 [Example A-1, N-[3-(5-Ethyl-7,7-dimethyl-6-oxo-1,5,6,7-tetrahydro-imidazo[4,5-f]indol-2-yl)-1H-pyrazol-4-yl]-acetamide] |  | 6.51 | 
8 | CCN1C(=O)C(C)(C)c2cc3[nH]c(-c4n[nH]cc4NC(=O)COC)nc3cc21 [Example B-22, N-[3-(5-Ethyl-7,7-dimethyl-6-oxo-1,5,6,7-tetrahydro-imidazo[4,5-f]indol-2-yl)-1H-pyrazol-4-yl]-2-methoxy-acetamide] |  | 7.00 | 
9 | CCN(CC)C(=O)Nc1c[nH]nc1-c1nc2cc3c(cc2[nH]1)C(C)(C)C(=O)N3CC [Example E-8, 1,1-Diethyl-3-[3-(5-ethyl-7,7-dimethyl-6-oxo-1,5,6,7-tetrahydro-imidazo[4,5-f]indol-2-yl)-1H-pyrazol-4-yl]-urea] | 9.00 |  | 
10 | CCN1C(=O)C(C)(C)c2cc3[nH]c(-c4n[nH]cc4NC(=O)c4cnccn4)nc3cc21 [Example C-11, Pyrazine-2-carboxylic acid[3-(5-ethyl-7,7-dimethyl-6-oxo-1,5,6,7-tetrahydro-imidazo[4,5-f]indol-2-yl)-1H-pyrazol-4-yl]-amide] | 8.52 |  | 
11 | CCN1C(=O)C(C)(C)c2cc3[nH]c(-c4n[nH]cc4NC(=O)OC)nc3cc21 [Example E-6, [3-(5-Ethyl-7,7-dimethyl-6-oxo-1,5,6,7-tetrahydro-imidazo[4,5-f]indol-2-yl)-1H-pyrazol-4-yl]-carbamic acid methyl ester] |  | 6.42 | 

Second part, led by results:

Row | pIC50 [1] | pIC50 ([2]; 120 h) | Compound | also measured
12 |  | 7.55 | CCN(CCN(C)C)C(=O)Nc1c[nH]nc1-c1nc2cc3c(cc2[nH]1)C(C)(C)C(=O)N3CC [Example F-4, 1-(2-Dimethylamino-ethyl)-1-ethyl-3-[3-(5-ethyl-7,7-dimethyl-6-oxo-1,5,6,7-tetrahydro-imidazo[4,5-f]indol-2-yl)-1H-pyrazol-4-yl]-urea] | 
13 | 7.62 |  | CCN1C(=O)C(C)(C)c2cc3nc(-c4n[nH]cc4NS(C)(=O)=O)[nH]c3cc21 [Example H-2, N-[3-(5-Ethyl-7,7-dimethyl-6-oxo-3,5,6,7-tetrahydro-imidazo[4,5-f]indol-2-yl)-1H-pyrazol-4-yl]-methanesulfonamide] | 
14 | 7.49 |  | CCN1C(=O)C(C)(C)c2cc3[nH]c(-c4n[nH]c(C)c4NCc4ccccc4)nc3cc21 [Example G-2, 2-(4-Benzylamino-5-methyl-1H-pyrazol-3-yl)-5-ethyl-7,7-dimethyl-5,7-dihydro-1H-imidazo[4,5-f]indol-6-one] | 
15 | 7.96 |  | CCN1C(=O)C(C)(C)c2cc3[nH]c(-c4n[nH]cc4NC(=O)N4CCC(OC)CC4)nc3cc21 [Example F-6] | 
